{
  "source": "paper PMC6270836",
  "about": "“Carapanolides J–L from the Seeds of Carapa guianensis (Andiroba) and Their Effects on LPS-Activated NO Production” (Molecules, 2014)",
  "key": {"RAW264.7 cells": {"test_system": "RAW264.7 cells", "test": "RAW264.7 cell proliferation / cytotoxicity by MTT assay", "details": "3–100 μM, MTT assay", "description": "(§1) Physiological nitric oxide (NO) is involved in blood pressure regulation and blood flow distribution, whereas its overexpression may induce tissue injury, multiple organ dysfunction, and death, as well as systemic inflammatory responses in sepsis, such as hypotension, cardiodepression, and vascular hyporeactivity. In the present study, four limonoids and L-NMMA, an inducible nitric oxide synthase (iNOS) inhibitor, were evaluated for their inhibitory effects on NO production in LPS-stimulated RAW264.7 cells (Table 3). To determine safe concentrations, the cytotoxicities of these limonoids against RAW 264.7 were assessed by the MTT assay.\n(§2) RAW264.7 cell proliferation was examined according to a method reported previously with some modifications. Briefly, RAW264.7 cells (5 × 10^4 cells in 100 μL) were seeded onto 96-well microplates, and incubated for 24 h. D-MEM (100 μL) containing test samples (final concentration of 100, 30, 10, or 3 μM) dissolved in DMSO (final concentration 0.2%) was added. […] After 3 h of incubation, 20% sodium dodecyl sulfate (SDS) in 0.1 M HCl was added to dissolve the formazan produced by the cells. The absorbance of each well was read at 570 nm using a microplate reader. The optical density of vehicle control cells was assumed to be 100%."}, "[1]": {"test": "RAW264.7 cell proliferation / cytotoxicity by MTT assay", "details": "mouse", "description": "as §1, §2"}, "[2]": {"test_system": "NO production in LPS-stimulated RAW264.7 cells", "test": "Inhibitory assay of NO production in LPS-stimulated RAW264.7 cells", "type": "cell-based, mouse", "details": "for Produced NO (%): LPS 5 μg/mL, DMSO control = 100%, mean ± S.E., n=3; for IC50: Mus musculus, read-out: IC50 (μM), produced NO", "description": "as §1\nAn inhibitory assay of nitric oxide production was performed according to a method reported previously with slight modifications. Briefly, RAW264.7 cells (5 × 10^4 cells in 100 μL) were seeded onto 96-well microplates, and incubated for 24h. D-MEM (100 μL) containing test samples (final concentration of 100, 30, 10, or 3 μM) dissolved in DMSO (final concentration 0.2%) and LPS (final concentration of 5 μg/mL) were added. […] After being incubated for 30 min, the absorbance of each well was read at 570 nm using a microplate reader. The optical density of vehicle control cells was assumed to be 100%."}, "[3]": {"details": "LPS-stimulated RAW264.7 cells, 24 h"}},
  "note": "“And” between values parts separate entries of the source, which are not always exact repeats. Equal values may be shown once. “Also recorded” adds a separate entry of the source. Read-outs that look alike come from different tables or passages of the source.",
  "data": [
    {"compound": "CC1(C)C(=O)C=CC2(C)C1CC(=O)C1(C)C2C(O)CC2(C)C(c3ccoc3)OC(=O)C3OC321", "note": "(stereo not drawn) [Compound 1, 11α-hydroxy-7-deacetoxy-7-oxogedunin]", "values": [
      {"measurement": "Cytotoxicity against RAW 264.7 (in words)", "setting": "RAW264.7 cells", "result": "non-toxicities; also recorded: no cytotoxicity"},
      {"measurement": "IC50 at 24 h", "setting": "[1]; RAW264.7 cells", "result": "> 100", "unit": "µM"},
      {"measurement": "viability at 24 h, 3 µM", "setting": "[1]; RAW264.7 cells", "result": "102.4 ± 0.8", "unit": "%"},
      {"measurement": "viability at 24 h, 10 µM", "setting": "[1]; RAW264.7 cells", "result": "101 ± 1.7", "unit": "%"},
      {"measurement": "viability at 24 h, 30 µM", "setting": "[1]; RAW264.7 cells", "result": "102.8 ± 0.6", "unit": "%"},
      {"measurement": "viability at 24 h, 100 µM", "setting": "[1]; RAW264.7 cells", "result": "103 ± 1.8", "unit": "%"},
      {"measurement": "Produced NO (%)", "setting": "[2]; 3 μM, 24 h", "result": "92.1 ± 1.5", "unit": "%"},
      {"measurement": "Produced NO (%)", "setting": "[2]; 10 μM, 24 h", "result": "83.4% and 83.4 ± 3.1%"},
      {"measurement": "Produced NO (%)", "setting": "[2]; 30 μM, 24 h", "result": "61.8% and 61.8 ± 1.8%"},
      {"measurement": "Produced NO (%)", "setting": "[2]; 100 μM, 24 h", "result": "16.8% and 16.8 ± 0.0%"},
      {"measurement": "IC50", "setting": "[2]; [3]", "result": 37.4, "unit": "µM"}
    ]},
    {"compound": "C/C=C(\\C)C(=O)OC1C2(C)CC3(O)C(C)(C4CCC5(C)C(=C4C(OC(=O)C(C)CC)C13O)C(OC(C)=O)C(=O)OC5c1ccoc1)C2CC(=O)OC", "note": "(centres unmarked) [Compound 2, carapanolide K]", "values": [
      {"measurement": "IC50 at 24 h", "setting": "[1]; RAW264.7 cells", "result": 15.2, "unit": "µM"},
      {"measurement": "viability at 24 h, 3 µM", "setting": "[1]; RAW264.7 cells", "result": "81.4 ± 0.8", "unit": "%"},
      {"measurement": "viability at 24 h, 10 µM", "setting": "[1]; RAW264.7 cells", "result": "65.6 ± 0.2", "unit": "%"},
      {"measurement": "viability at 24 h, 30 µM", "setting": "[1]; RAW264.7 cells", "result": "33.6 ± 6.3", "unit": "%"},
      {"measurement": "viability at 24 h, 100 µM", "setting": "[1]; RAW264.7 cells", "result": "0.4 ± 0.4", "unit": "%"},
      {"measurement": "Produced NO (%)", "setting": "[2]; 3 μM, 24 h", "result": "78.6 ± 1.9", "unit": "%"},
      {"measurement": "Produced NO (%)", "setting": "[2]; 10 μM, 24 h", "result": "58.3 ± 2.8", "unit": "%"},
      {"measurement": "Produced NO (%)", "setting": "[2]; 30 μM, 24 h", "result": "25.8 ± 7.0", "unit": "%"},
      {"measurement": "Produced NO (%)", "setting": "[2]; 100 μM, 24 h", "result": "7.1 ± 1.2", "unit": "%"},
      {"measurement": "IC50", "setting": "[2]; [3]", "result": 12, "unit": "µM"}
    ]},
    {"compound": "CCC(=O)OC1C2(O)C(OC(C)=O)C3(C)CC24OC2(C)OC15C1CC(=O)OC(c6ccoc6)C1(C)CCC5(O2)C41COC(=O)CC31", "note": "(centres unmarked) [Compound 3, carapanolide L]", "values": [
      {"measurement": "Cytotoxicity against RAW 264.7 (in words)", "setting": "RAW264.7 cells", "result": "non-toxicities"},
      {"measurement": "IC50 at 24 h", "setting": "[1]; RAW264.7 cells", "result": "> 100", "unit": "µM"},
      {"measurement": "viability at 24 h, 3 µM", "setting": "[1]; RAW264.7 cells", "result": "97.6 ± 0.6", "unit": "%"},
      {"measurement": "viability at 24 h, 10 µM", "setting": "[1]; RAW264.7 cells", "result": "97.3 ± 1.3", "unit": "%"},
      {"measurement": "viability at 24 h, 30 µM", "setting": "[1]; RAW264.7 cells", "result": "100.5 ± 0.4", "unit": "%"},
      {"measurement": "viability at 24 h, 100 µM", "setting": "[1]; RAW264.7 cells", "result": "94.4 ± 1", "unit": "%"},
      {"measurement": "Produced NO (%)", "setting": "[2]; 3 μM, 24 h", "result": "95.6 ± 2.5", "unit": "%"},
      {"measurement": "Produced NO (%)", "setting": "[2]; 10 μM, 24 h", "result": "95.4 ± 1.2", "unit": "%"},
      {"measurement": "Produced NO (%)", "setting": "[2]; 30 μM, 24 h", "result": "95.4 ± 2.9", "unit": "%"},
      {"measurement": "Produced NO (%)", "setting": "[2]; 100 μM, 24 h", "result": "78.4 ± 2.3", "unit": "%"},
      {"measurement": "IC50", "setting": "[2]; RAW264.7, 24 h", "result": "> 100", "unit": "µM"}
    ]},
    {"compound": "CC(=O)O[C@@H]1C[C@H]2C(C)(C)C(=O)C=C[C@]2(C)[C@H]2CC[C@@]3(C)[C@H](c4ccoc4)C(=O)[C@H]4O[C@]43[C@@]21C", "note": "[Compound 4, epoxyazadiradione]", "values": [
      {"measurement": "Cytotoxicity against RAW 264.7 (in words)", "setting": "RAW264.7 cells", "result": "moderate cytotoxicities"},
      {"measurement": "IC50 at 24 h", "setting": "[1]", "result": 21.3, "unit": "µM"},
      {"measurement": "viability at 24 h, 3 µM", "setting": "[1]", "result": "93.6 ± 1.4", "unit": "%"},
      {"measurement": "viability at 24 h, 10 µM", "setting": "[1]", "result": "99.7 ± 0.8", "unit": "%"},
      {"measurement": "viability at 24 h, 30 µM", "setting": "[1]", "result": "6.8 ± 0.3", "unit": "%"},
      {"measurement": "viability at 24 h, 100 µM", "setting": "[1]", "result": "3.3 ± 0.3", "unit": "%"},
      {"measurement": "Produced NO (%)", "setting": "[2]; 3 μM, 24 h", "result": "74.0% and 74.0 ± 5.0%"},
      {"measurement": "Produced NO (%)", "setting": "[2]; 10 μM, 24 h", "result": "30.0% and 30.0 ± 2.3%"},
      {"measurement": "Produced NO (%)", "setting": "[2]; 30 μM, 24 h", "result": "7.5 ± 1.0", "unit": "%"},
      {"measurement": "Produced NO (%)", "setting": "[2]; 100 μM, 24 h", "result": "3.9 ± 1.8", "unit": "%"},
      {"measurement": "IC50", "setting": "[2]; [3]", "result": 5.9, "unit": "µM"}
    ]},
    {"compound": "[H]/N=C(/NC)NCCC[C@H](N)C(=O)O", "note": "[L-NMMA, reference compound]", "values": [
      {"measurement": "IC50 at 24 h", "setting": "[1]; RAW264.7 cells", "result": "> 100", "unit": "µM"},
      {"measurement": "viability at 24 h, 3 µM", "setting": "[1]; RAW264.7 cells", "result": "103.5 ± 0.5", "unit": "%"},
      {"measurement": "viability at 24 h, 10 µM", "setting": "[1]; RAW264.7 cells", "result": "102 ± 1.5", "unit": "%"},
      {"measurement": "viability at 24 h, 30 µM", "setting": "[1]; RAW264.7 cells", "result": "94.1 ± 1.4", "unit": "%"},
      {"measurement": "viability at 24 h, 100 µM", "setting": "[1]; RAW264.7 cells", "result": "96.5 ± 2.5", "unit": "%"},
      {"measurement": "Produced NO (%)", "setting": "[2]; 3 μM, 24 h", "result": "93.0 ± 3.3", "unit": "%"},
      {"measurement": "Produced NO (%)", "setting": "[2]; 10 μM, 24 h", "result": "79.3% and 79.3 ± 0.8%"},
      {"measurement": "Produced NO (%)", "setting": "[2]; 30 μM, 24 h", "result": "58.2% and 58.2 ± 2.4%"},
      {"measurement": "Produced NO (%)", "setting": "[2]; 100 μM, 24 h", "result": "39.9% and 39.9 ± 1.7%"},
      {"measurement": "IC50", "setting": "[2]; [3]", "result": 53.7, "unit": "µM"}
    ]}
  ]
}
